How the values were obtained:
K562 = assay: Ratio of compound IC50 to adriamycin IC50 for Homo sapiens (human) K562 cells after 24 to 72 hr by MTT assay; format: functional
[1] = biological target: ATP-dependent translocase ABCB1 (Homo sapiens, UniProt P08183); assay: Inhibition of p-glycoprotein in Homo sapiens (human) K562/A02 cells assessed as reduction of adriamycin IC50 for cytotoxic effect at IC10 treated 12 hr before adriamycin challenge measured after 24 to 72 hr by MTT assay; format: cell-based
Chain of ATP-dependent translocase ABCB1 (P08183 whole entry): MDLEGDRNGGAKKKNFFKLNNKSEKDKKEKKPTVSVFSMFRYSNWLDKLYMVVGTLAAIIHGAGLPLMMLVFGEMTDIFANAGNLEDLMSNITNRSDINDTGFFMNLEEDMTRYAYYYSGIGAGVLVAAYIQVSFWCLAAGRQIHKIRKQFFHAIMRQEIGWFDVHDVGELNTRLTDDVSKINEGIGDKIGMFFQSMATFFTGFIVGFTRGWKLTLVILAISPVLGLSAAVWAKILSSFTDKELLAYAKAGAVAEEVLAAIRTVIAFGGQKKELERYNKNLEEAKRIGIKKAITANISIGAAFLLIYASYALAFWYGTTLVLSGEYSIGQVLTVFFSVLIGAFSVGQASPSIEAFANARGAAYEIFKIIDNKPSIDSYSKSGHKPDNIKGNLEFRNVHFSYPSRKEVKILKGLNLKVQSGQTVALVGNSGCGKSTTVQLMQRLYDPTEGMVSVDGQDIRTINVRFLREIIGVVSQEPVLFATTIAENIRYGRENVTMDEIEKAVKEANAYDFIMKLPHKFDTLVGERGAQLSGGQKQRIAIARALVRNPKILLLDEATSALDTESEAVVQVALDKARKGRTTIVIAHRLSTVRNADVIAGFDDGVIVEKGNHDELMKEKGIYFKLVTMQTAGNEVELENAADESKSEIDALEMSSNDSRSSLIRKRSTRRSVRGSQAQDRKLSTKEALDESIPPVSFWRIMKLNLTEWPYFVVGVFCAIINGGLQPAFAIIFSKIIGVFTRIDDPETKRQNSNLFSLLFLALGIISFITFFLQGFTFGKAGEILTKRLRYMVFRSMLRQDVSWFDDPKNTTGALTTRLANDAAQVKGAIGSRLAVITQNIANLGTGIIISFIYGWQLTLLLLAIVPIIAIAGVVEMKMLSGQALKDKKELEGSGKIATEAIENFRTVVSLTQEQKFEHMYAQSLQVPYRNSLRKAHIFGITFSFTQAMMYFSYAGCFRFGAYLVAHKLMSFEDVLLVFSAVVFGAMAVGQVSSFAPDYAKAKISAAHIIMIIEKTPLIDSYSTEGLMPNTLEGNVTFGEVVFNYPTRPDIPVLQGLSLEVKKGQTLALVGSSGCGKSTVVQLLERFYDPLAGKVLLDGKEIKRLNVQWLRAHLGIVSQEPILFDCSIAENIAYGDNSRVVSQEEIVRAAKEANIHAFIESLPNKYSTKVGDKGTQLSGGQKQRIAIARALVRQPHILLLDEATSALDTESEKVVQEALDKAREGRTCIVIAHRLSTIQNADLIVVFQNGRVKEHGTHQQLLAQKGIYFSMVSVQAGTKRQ

[2] = Cytotoxicity against Homo sapiens (human) K562/A02 cells after 24 to 72 hr by MTT assay; format: cell-based

SMILES	Ratio IC50 (K562)	fold change (FC) [1]	IC10 [2]
Cc1ccc(NC(=O)Cn2c(=O)c(C)nc3ccccc32)cc1	1	3.55	1630 nM
Cc1nc2ccccc2n(CC(=O)Nc2ccccc2)c1=O	1.07	2.45	34100 nM
COc1ccc(NC(=O)Cn2c(=O)c(C)nc3ccccc32)cc1OC	1.15	3.75	1420 nM
Cc1ccccc1NC(=O)Cn1c(=O)c(C)nc2ccccc21	1.15	4.01	1850 nM
Cc1nc2ccccc2n(CC(=O)Nc2ccc(Br)cc2)c1=O	0.94	1.24	2700 nM
Cc1nc2ccccc2n(CC(=O)Nc2ccc(Cl)c(Cl)c2)c1=O	1.07	1.62	140 nM
Cc1nc2ccccc2n(CC(=O)Nc2ccc(F)c(Cl)c2)c1=O	1	1.83	2910 nM
Cc1nc2cc(F)c(F)cc2n(CC(=O)Nc2ccccc2)c1=O	1	2.41	1520 nM
COc1cc2nc(C)c(=O)n(CC(=O)Nc3ccccc3)c2cc1OC	1.15	4.59	2840 nM
Cc1nc2ccccc2n(CC(=O)Nc2ccc(F)c(F)c2)c1=O	1.07	5.3	2570 nM
COC(=O)[C@H](Cc1ccccc1)NC(=O)Cn1c(=O)c(C)nc2cc(F)c(F)cc21	1.15	1.05	2410 nM
COC(=O)[C@H](Cc1ccccc1)NC(=O)Cn1c(=O)c(C)nc2cc(OC)c(OC)cc21	1	1.82	11380 nM
COC(=O)[C@H](Cc1ccccc1)NC(=O)Cn1c(=O)c(C)nc2ccccc21	1.25	2.01	13190 nM
CCOC(=O)CNC(=O)Cn1c(=O)c(C)nc2ccccc21	1.07	2.37	16500 nM
CCOC(=O)CC[C@H](NC(=O)Cn1c(=O)c(C)nc2ccccc21)C(=O)OCC	1.15	4.13	2480 nM
COC(=O)[C@@H]1C[C@@H](O)CN1C(=O)Cn1c(=O)c(C)nc2ccccc21	1.15	4.82	2890 nM
CCOC(=O)Cn1c(=O)c(C)nc2ccccc21	1	1.5	4060 nM
